Test results from patent publication US10767179B2, “MicroRNA composition for the treatment of neuroblastoma” (THE BOARD OF REGENTS OF THE UNIVERSITY OF TEXAS SYSTEM, priority 2014, dated 2020).

Assays:
BE(2)-C cells [1] = assay: High-content screen: detection and quantification of neurite outgrowth; assay type: cell-based; parameters: key: neurite length normalized to the mean of its plate; details: 25 nM miRNA mimic, 4 days transfection, normalized to plate mean
Procedure: FIG. 2A-2C. HCS screening of miRNA mimics identifies miRNAs that induce neurite outgrowth in BE(2)-C cells. (A-B) 2,500 cells were reverse-transfected with 25 nM miRNA mimics in 96-well plates. After 4 days transfection, relative neurite lengths were quantified as above. (A) The distribution of post-normalized neurite length measurements (grey histogram) for individual miRNA mimics from the screen and the fitted Gamma distribution curve (␣=3.27, ┘=0.444) (B) Correlation between two independent neurite length measurements for one library plate. Cells were transfected with 25 nM mimics in two independent 96-well plates. Normalized neurite lengths were measured as above. Correlation of neurite length between the two plates was analyzed using two-tailed Pearson Correlation with p<0.05 considered significant. (C) The distribution of the neurite lengths for untreated BE(2)-C cells. 2,500 Cells were plated into each well in 96 well plates. After 4 days of culture, neurite lengths were analyzed as above. Shown are the neurite length distribution histogram, the empirical density curve, and the fitted Gamma distribution curve (␣=30.23, ␣=0.033).
Detection and Quantification of Neurite Outgrowth. Cells were plated and treated in 96-well plates. For detecting neurite outgrowth, cells were placed into ZOOM IncuCyte Imaging System (Essen BioScience) and cell images were taken under 20× microscopic magnification. For detecting neurite outgrowth in a time-dependent manner, cell images were taken every 6 h. The neurite lengths associated with each treatment were calculated using the neurite definition defined for each specific cell line using the NeuroTrack system (Essen BioScience).
Analysis of HCS Data. The relative neurite length associated with cells in each well on the screen plates was determined as above. In order to allow for plate-to-plate comparison, neurite length associated with each well in each plate was first internally normalized to the mean of the corresponding plate, and multiple screen plates were then aggregated together to generate the neurite length distribution. The data were then further analyzed to determine the distribution of the unaffected cells as described below, and to identify differentiation-inducing miRNA mimics.
Statistical Analysis. For HCS, p-value for neurite length associated with each miRNA mimic was evaluated by assuming the distribution of neurite lengths follows Gamma distribution, and false Discovery Rate (FDR) was determined by Benjamini-Hochberg correction method for multiple tests (Benjamin, Journal of the Royal Statistical Society Series B (Methodological), 1995, 57(1):12). […] For all other conditions, the statistical significance for each treatment was determined using t-test by comparing the treatment group with control, with p<0.05 considered statistically significant.

BE(2)-C cells [2] = assay: Colony Formation Assay; assay type: cell-based; details: 25 nM mimic, 14 days
Procedure: Colony Formation Assay. Cells were transfected as specified and cultured overnight. 500 cells were re-plated in 10 cm dishes. After 14 days, colonies were visualized by staining with 1% crystal violet. Colony numbers and sizes were analyzed using Image J (NIH, Bethesda, Md.).

3′UTR of CDK4 = assay: Luciferase Reporter Assay, CDK4 3'UTR; assay type: cell-based, human; details: BE(2)-C cells, 25 nM mimic, 72 h
Source text: (§1) Luciferase Reporter Assay. The segments of the wildtype 3′ UTRs for CDK4 and STAT3 containing the predicted target sites of miR-506-3p and miR-124-3p were cloned from human genomic DNA. Mutant constructs were generated with the seed target site (GUGCCUU (SEQ ID NO:4)) replaced by CACGGUU (SEQ ID NO:5). The 3′ UTRs were cloned downstream of the firefly luciferase coding sequences into the pmirGLO dual-luciferase reporter (Promega), a vector containing both firefly and Renilla luciferase cDNAs under the control of separate promoter/terminator systems. The firefly luciferase was used as the primary reporter for miRNA regulation of the 3′ UTR. The Renilla luciferase is an internal control for normalization. BE(2)-C cells were co-transfected with luciferase reporters (0.8 ng/μl) and miRNA mimics or control oligonucleotide (oligo) (25 nM). Luciferase activities were measured after 72 h using the Dual-Glo Luciferase Assay System (Promega). Firefly luciferase activity was normalized to Renilla luciferase activity to evaluate the effect of the miRNAs.

3′UTR of STAT3 = assay: Luciferase Reporter Assay, STAT3 3'UTR; assay type: cell-based, human; details: BE(2)-C cells, 25 nM mimic, 72 h
Source text: as §1

hsa-miR-506-3p: miRNA mimic (Dharmacon), mature sequence UAAGGCACCCUUCUGAGUAGA (SEQ ID NO: 1) (UAAGGCACCCUUCUGAGUAGA(1); as printed in the source, key not given here)
Neurite length (mean ± SD) (BE(2)-C cells [1]): 10.04 ± 3.41 | Colony formation (BE(2)-C cells [2]): significantly reduce the ability of BE(2)-C to form colonies | Target site in the 3′UTR of CDK4 by luciferase reporter (3′UTR of CDK4): validated | Target site in the 3′UTR of STAT3 by luciferase reporter (3′UTR of STAT3): validated
